Data from the kinase profiling compilation of Christmann-Franck et al. (2016).

Legend:
Assay in all cases: radiometric filter-binding kinase assay, Kinase HotSpot
Conditions in all cases: compound 0.5 µM; ATP 10 µM
LCK (human) = LCK (human) (UniProt P06239)
NEK4 (human) = NEK4 (human) (UniProt P51957)
PRKX (human) = PRKX (human) (UniProt P51817)
MAPKAPK2 (human) = MAPKAPK2 (human) (UniProt P49137)
MAPKAPK3 (human) = MAPKAPK3 (human) (UniProt Q16644)
SRPK3 (human) = SRPK3 (human) (UniProt Q9UPE1)
FGFR4 (human) = FGFR4 (human) (UniProt P22455)
FGFR4 (human), sequence (P22455 whole entry, looked up): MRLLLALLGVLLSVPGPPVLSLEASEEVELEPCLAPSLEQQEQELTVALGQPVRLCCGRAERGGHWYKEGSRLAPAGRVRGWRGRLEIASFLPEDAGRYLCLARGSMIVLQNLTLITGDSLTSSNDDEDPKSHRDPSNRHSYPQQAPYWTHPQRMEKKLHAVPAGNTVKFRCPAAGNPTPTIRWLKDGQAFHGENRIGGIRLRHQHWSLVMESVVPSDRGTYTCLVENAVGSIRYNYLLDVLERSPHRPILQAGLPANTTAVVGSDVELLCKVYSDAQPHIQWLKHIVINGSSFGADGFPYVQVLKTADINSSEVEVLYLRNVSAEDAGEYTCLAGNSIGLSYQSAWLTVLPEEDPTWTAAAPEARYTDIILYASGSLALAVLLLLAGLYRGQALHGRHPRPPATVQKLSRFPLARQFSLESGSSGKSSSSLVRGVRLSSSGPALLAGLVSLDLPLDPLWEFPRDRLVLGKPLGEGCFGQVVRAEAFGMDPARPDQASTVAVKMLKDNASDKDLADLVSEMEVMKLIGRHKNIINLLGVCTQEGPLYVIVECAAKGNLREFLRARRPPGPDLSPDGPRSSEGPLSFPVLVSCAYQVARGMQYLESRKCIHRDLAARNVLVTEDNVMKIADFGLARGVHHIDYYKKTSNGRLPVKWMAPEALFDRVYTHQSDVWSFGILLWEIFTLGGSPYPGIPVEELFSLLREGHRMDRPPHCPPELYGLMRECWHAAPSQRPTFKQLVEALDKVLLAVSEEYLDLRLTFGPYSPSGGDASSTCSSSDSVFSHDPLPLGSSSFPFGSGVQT

STK3 (human) = STK3 (human) (UniProt Q13188)
PRKCZ (human) = PRKCZ (human) (UniProt Q05513)
ADRBK2 (human) = ADRBK2 (human) (UniProt P35626)
AXL (human) = AXL (human) (UniProt P30530)
AXL (human), sequence (P30530 whole entry, looked up): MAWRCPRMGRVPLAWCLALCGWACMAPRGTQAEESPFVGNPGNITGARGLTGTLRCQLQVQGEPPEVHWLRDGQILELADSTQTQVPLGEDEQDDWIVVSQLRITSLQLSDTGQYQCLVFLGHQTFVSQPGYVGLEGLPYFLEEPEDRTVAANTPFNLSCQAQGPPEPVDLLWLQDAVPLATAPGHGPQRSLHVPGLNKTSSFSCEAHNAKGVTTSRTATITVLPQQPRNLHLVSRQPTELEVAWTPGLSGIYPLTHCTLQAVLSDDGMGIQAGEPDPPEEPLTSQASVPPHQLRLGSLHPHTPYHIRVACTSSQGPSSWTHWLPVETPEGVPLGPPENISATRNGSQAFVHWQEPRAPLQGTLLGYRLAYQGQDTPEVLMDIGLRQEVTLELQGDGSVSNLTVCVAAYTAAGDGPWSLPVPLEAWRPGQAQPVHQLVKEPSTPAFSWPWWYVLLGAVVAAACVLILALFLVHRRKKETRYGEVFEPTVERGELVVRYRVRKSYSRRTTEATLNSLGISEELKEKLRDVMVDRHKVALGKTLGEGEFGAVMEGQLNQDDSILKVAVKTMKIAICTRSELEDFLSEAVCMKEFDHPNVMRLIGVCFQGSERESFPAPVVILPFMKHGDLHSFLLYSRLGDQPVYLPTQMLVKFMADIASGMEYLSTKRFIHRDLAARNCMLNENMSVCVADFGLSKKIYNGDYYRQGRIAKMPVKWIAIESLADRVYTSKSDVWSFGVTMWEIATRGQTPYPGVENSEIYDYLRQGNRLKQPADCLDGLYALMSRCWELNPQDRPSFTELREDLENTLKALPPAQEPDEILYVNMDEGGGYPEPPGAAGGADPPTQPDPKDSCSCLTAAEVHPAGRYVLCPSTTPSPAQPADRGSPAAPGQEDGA

PTK6 (human) = PTK6 (human) (UniProt Q13882)
MAPK3 (human) = MAPK3 (human) (UniProt P27361)
MAPK3 (human), sequence (P27361 whole entry, looked up): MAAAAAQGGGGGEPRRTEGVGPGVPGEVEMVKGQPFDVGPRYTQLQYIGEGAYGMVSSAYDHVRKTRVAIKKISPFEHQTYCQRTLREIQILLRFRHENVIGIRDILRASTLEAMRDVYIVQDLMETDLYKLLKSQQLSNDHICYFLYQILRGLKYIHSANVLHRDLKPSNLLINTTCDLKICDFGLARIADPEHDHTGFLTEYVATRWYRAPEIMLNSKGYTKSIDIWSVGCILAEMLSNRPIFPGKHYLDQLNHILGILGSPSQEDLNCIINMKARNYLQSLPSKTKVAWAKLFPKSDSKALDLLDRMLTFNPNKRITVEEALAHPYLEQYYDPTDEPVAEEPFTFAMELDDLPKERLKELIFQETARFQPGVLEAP

CSF1R (human) = CSF1R (human) (UniProt P07333)
ULK2 (human) = ULK2 (human) (UniProt Q8IYT8)
LIMK1 (human) = LIMK1 (human) (UniProt P53667)
SGK3 (human) = SGK3 (human) (UniProt Q96BR1)
TXK (human) = TXK (human) (UniProt P42681)
MAPK8 (human) = MAPK8 (human) (UniProt P45983)
STK10 (human) = STK10 (human) (UniProt O94804)
RET (human) = RET (human) (UniProt P07949)
CSK (human) = CSK (human) (UniProt P41240)
NEK11 (human) = NEK11 (human) (UniProt Q8NG66)
CSNK1E (human) = CSNK1E (human) (UniProt P49674)
CSNK1E (human), sequence (P49674 whole entry, looked up): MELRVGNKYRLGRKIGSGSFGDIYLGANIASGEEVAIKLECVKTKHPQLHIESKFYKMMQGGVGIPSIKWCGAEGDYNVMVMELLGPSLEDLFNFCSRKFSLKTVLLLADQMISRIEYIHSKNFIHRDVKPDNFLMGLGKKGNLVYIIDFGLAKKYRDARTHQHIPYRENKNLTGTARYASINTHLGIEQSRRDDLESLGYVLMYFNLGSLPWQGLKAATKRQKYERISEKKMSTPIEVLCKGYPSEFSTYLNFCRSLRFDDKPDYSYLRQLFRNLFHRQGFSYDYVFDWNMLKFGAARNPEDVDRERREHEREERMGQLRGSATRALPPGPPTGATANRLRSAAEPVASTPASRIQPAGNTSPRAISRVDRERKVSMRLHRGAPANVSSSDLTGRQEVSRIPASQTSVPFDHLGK

RPS6KB1 (human) = RPS6KB1 (human) (UniProt P23443)
MET (human) = MET (human) (UniProt P08581)
CHEK2 (human) = CHEK2 (human) (UniProt O96017)
NUAK2 (human) = NUAK2 (human) (UniProt Q9H093)
NUAK2 (human), sequence (Q9H093 whole entry, looked up): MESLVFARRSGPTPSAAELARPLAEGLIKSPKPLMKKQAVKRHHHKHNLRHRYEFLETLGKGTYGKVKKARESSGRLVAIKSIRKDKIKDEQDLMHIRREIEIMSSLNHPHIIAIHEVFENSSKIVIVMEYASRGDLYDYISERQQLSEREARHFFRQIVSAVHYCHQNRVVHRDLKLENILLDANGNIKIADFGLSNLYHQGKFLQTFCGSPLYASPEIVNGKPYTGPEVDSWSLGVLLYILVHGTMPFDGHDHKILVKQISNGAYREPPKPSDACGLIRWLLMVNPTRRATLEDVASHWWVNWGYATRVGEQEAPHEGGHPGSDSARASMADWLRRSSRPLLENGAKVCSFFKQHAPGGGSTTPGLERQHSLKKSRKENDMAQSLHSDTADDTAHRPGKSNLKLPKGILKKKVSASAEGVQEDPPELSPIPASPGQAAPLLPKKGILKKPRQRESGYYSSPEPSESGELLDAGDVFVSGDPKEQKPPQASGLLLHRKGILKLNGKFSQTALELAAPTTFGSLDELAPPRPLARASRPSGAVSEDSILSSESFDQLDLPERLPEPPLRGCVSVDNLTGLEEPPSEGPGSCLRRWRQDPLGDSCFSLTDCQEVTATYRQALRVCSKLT

MAP2K2 (human) = MAP2K2 (human) (UniProt P36507)
CDK7 CCNH MNAT1 (human) = CDK7 CCNH MNAT1 (human) (UniProt P50613+P51948+P51946)
MAP2K1 (human) = MAP2K1 (human) (UniProt Q02750)
NTRK3 (human) = NTRK3 (human) (UniProt Q16288)
NTRK3 (human), sequence (Q16288 whole entry, looked up): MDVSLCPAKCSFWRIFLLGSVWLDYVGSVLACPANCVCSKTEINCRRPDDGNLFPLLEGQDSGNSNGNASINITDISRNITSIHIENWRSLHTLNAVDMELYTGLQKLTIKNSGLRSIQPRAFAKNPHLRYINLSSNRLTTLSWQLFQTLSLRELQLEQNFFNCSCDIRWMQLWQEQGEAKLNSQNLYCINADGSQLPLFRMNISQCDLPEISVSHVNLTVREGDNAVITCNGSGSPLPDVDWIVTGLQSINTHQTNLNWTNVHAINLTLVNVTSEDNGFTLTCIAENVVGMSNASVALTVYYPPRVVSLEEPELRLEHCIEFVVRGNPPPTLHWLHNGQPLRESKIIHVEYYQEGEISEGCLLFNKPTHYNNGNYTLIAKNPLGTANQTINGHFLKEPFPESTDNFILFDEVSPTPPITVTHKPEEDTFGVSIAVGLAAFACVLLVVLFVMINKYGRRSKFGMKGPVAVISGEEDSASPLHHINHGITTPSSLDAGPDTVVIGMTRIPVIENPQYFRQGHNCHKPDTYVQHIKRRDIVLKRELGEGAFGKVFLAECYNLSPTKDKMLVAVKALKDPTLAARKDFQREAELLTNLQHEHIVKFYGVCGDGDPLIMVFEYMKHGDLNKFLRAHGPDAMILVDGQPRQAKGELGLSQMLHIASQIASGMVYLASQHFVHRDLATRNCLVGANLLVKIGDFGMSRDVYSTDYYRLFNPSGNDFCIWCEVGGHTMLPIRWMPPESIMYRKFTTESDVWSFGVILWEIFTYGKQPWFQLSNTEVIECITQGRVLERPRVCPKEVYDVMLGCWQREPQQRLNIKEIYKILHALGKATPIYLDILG

NUAK1 (human) = NUAK1 (human) (UniProt O60285)
EPHB2 (human) = EPHB2 (human) (UniProt P29323)
SRPK2 (human) = SRPK2 (human) (UniProt P78362)
BRSK1 (human) = BRSK1 (human) (UniProt Q8TDC3)
GRK5 (human) = GRK5 (human) (UniProt P34947)
PAK7 (human) = PAK7 (human) (UniProt Q9P286)
NEK2 (human) = NEK2 (human) (UniProt P51955)
MST4 (human) = MST4 (human) (UniProt Q9P289)
ROCK1 (human) = ROCK1 (human) (UniProt Q13464)
PIM1 (human) = PIM1 (human) (UniProt P11309)

NEK4 (human), sequence (P51957 whole entry, looked up): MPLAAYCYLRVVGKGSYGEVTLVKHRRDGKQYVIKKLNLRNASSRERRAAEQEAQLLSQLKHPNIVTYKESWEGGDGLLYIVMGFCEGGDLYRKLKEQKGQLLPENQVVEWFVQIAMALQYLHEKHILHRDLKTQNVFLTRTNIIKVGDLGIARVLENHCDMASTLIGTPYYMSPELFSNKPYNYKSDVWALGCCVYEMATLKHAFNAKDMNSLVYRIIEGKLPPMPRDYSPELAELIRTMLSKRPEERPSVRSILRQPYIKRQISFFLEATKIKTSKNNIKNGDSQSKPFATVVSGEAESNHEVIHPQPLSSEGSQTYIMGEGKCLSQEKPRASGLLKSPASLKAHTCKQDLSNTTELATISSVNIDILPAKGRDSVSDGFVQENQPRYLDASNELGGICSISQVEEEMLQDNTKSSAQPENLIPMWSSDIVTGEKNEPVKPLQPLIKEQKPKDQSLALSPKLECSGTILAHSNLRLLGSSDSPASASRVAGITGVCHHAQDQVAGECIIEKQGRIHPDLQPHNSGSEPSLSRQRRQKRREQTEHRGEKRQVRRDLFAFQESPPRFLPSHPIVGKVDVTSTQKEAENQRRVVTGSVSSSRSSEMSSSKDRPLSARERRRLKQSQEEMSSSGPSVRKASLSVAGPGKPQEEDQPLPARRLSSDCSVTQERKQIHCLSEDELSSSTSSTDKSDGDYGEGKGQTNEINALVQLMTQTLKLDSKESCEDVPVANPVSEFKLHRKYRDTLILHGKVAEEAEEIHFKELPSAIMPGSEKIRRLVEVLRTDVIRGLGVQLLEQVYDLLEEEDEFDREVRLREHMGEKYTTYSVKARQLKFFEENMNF

## CCN(CC)CCCCN1c2ccccc2Oc2ccc(Cl)cc21
LCK (human)
  residual activity: 94.6%
NEK4 (human)
  residual activity: 110%
PRKX (human)
  residual activity: 103%
MAPKAPK2 (human)
  residual activity: 97.2%
MAPKAPK3 (human)
  residual activity: 105%
SRPK3 (human)
  residual activity: 104%
FGFR4 (human)
  residual activity: 92.6%
STK3 (human)
  residual activity: 106%
PRKCZ (human)
  residual activity: 105%
ADRBK2 (human)
  residual activity: 87.5%
AXL (human)
  residual activity: 95.2%
PTK6 (human)
  residual activity: 95%
MAPK3 (human)
  residual activity: 111%
CSF1R (human)
  residual activity: 97.8%
ULK2 (human)
  residual activity: 103%
LIMK1 (human)
  residual activity: 94.3%
SGK3 (human)
  residual activity: 101%
TXK (human)
  residual activity: 101%
MAPK8 (human)
  residual activity: 89.7%
STK10 (human)
  residual activity: 97.1%
RET (human)
  residual activity: 96.3%
CSK (human)
  residual activity: 99.1%
NEK11 (human)
  residual activity: 92%
CSNK1E (human)
  residual activity: 112%
RPS6KB1 (human)
  residual activity: 97.7%
MET (human)
  residual activity: 105%
CHEK2 (human)
  residual activity: 105%
NUAK2 (human)
  residual activity: 90.9%
MAP2K2 (human)
  residual activity: 88.4%
CDK7 CCNH MNAT1 (human)
  residual activity: 99%
MAP2K1 (human)
  residual activity: 98.1%
NTRK3 (human)
  residual activity: 103%
NUAK1 (human)
  residual activity: 90.7%
EPHB2 (human)
  residual activity: 107%
SRPK2 (human)
  residual activity: 109%
BRSK1 (human)
  residual activity: 98.3%
GRK5 (human)
  residual activity: 103%
PAK7 (human)
  residual activity: 116%
NEK2 (human)
  residual activity: 101%
MST4 (human)
  residual activity: 98%
ROCK1 (human)
  residual activity: 92.6%

## O=C1NC(=O)C(c2c[nH]c3ccccc23)=C1c1c[nH]c2ccccc12
LCK (human)
  residual activity: 85.1%
NEK4 (human)
  residual activity: 96.4%
PRKX (human)
  residual activity: 99.5%
MAPKAPK2 (human)
  residual activity: 95.6%
MAPKAPK3 (human)
  residual activity: 90.5%
SRPK3 (human)
  residual activity: 90%
FGFR4 (human)
  residual activity: 87.8%
STK3 (human)
  residual activity: 64.7%
PRKCZ (human)
  residual activity: 96.2%
ADRBK2 (human)
  residual activity: 87%
AXL (human)
  residual activity: 103%
PTK6 (human)
  residual activity: 84.6%
MAPK3 (human)
  residual activity: 105%
CSF1R (human)
  residual activity: 93.7%
ULK2 (human)
  residual activity: 92.9%
LIMK1 (human)
  residual activity: 103%
SGK3 (human)
  residual activity: 97.9%
TXK (human)
  residual activity: 101%
MAPK8 (human)
  residual activity: 95.1%
STK10 (human)
  residual activity: 49.6%
RET (human)
  residual activity: 80.6%
CSK (human)
  residual activity: 103%
NEK11 (human)
  residual activity: 108%
CSNK1E (human)
  residual activity: 92.4%
RPS6KB1 (human)
  residual activity: 75.6%
CHEK2 (human)
  residual activity: 124%
NUAK2 (human)
  residual activity: 86%
MAP2K2 (human)
  residual activity: 82.7%
CDK7 CCNH MNAT1 (human)
  residual activity: 94.4%
MAP2K1 (human)
  residual activity: 95.8%
NTRK3 (human)
  residual activity: 72.5%
NUAK1 (human)
  residual activity: 78.5%
EPHB2 (human)
  residual activity: 96.9%
SRPK2 (human)
  residual activity: 84.3%
BRSK1 (human)
  residual activity: 84.4%
PIM1 (human)
  residual activity: 17.2%
GRK5 (human)
  residual activity: 98.1%
PAK7 (human)
  residual activity: 104%
NEK2 (human)
  residual activity: 102%
MST4 (human)
  residual activity: 59.2%
ROCK1 (human)
  residual activity: 97.4%

## O=C1Cc2c([nH]c3ccc(Br)cc23)-c2ccccc2N1
NEK4 (human)
  residual activity: 98.9%
PRKX (human)
  residual activity: 100%
MAPKAPK2 (human)
  residual activity: 101%
MAPKAPK3 (human)
  residual activity: 100%
SRPK3 (human)
  residual activity: 100%
FGFR4 (human)
  residual activity: 113%
STK3 (human)
  residual activity: 83.2%
PRKCZ (human)
  residual activity: 98.3%
ADRBK2 (human)
  residual activity: 109%
AXL (human)
  residual activity: 101%
PTK6 (human)
  residual activity: 87.7%
MAPK3 (human)
  residual activity: 100%
CSF1R (human)
  residual activity: 92.6%
ULK2 (human)
  residual activity: 90.1%
LIMK1 (human)
  residual activity: 99.2%
SGK3 (human)
  residual activity: 107%
TXK (human)
  residual activity: 82.6%
MAPK8 (human)
  residual activity: 87.5%
STK10 (human)
  residual activity: 89.8%
RET (human)
  residual activity: 102%
CSK (human)
  residual activity: 88%
NEK11 (human)
  residual activity: 107%
CSNK1E (human)
  residual activity: 103%
RPS6KB1 (human)
  residual activity: 103%
CHEK2 (human)
  residual activity: 59%
NUAK2 (human)
  residual activity: 71.1%
MAP2K2 (human)
  residual activity: 116%
CDK7 CCNH MNAT1 (human)
  residual activity: 95.1%
MAP2K1 (human)
  residual activity: 84.3%
NTRK3 (human)
  residual activity: 70.7%
NUAK1 (human)
  residual activity: 14.6%
EPHB2 (human)
  residual activity: 95.5%
SRPK2 (human)
  residual activity: 98.9%
BRSK1 (human)
  residual activity: 60.5%
PIM1 (human)
  residual activity: 96.8%
GRK5 (human)
  residual activity: 97%
PAK7 (human)
  residual activity: 85.1%
NEK2 (human)
  residual activity: 87.1%
MST4 (human)
  residual activity: 108%
ROCK1 (human)
  residual activity: 96.1%
